Data: article PMC9544171, “Glucose‐dependent insulinotropic polypeptide receptor antagonist treatment causes a reduction in weight gain in ovariectomised high fat diet‐fed mice” (British Journal of Pharmacology, 2022)
Where a SMILES comes first, the peptide text is derived from it. The star is where a group is joined. C16 diacid = O=C(O)CCCCCCCCCCCCCCC(=O)*

Experiments:
[1] = Pharmacokinetic analysis after s.c. administration, plasma radioimmunoassay; assay type: in vivo; settings: sc, female C57Bl/6 mice, single s.c. 300 nmol·kg−1 (6 nmol per mouse), in‐house radioimmunoassay
Procedure: To assess mGIPAnt‐1 half‐life following subcutaneous (s.c.) administration, mice (n = 6) received a single s.c. administration of 300‐nmol·kg^−1 mGIPAnt‐1. Retro‐orbital blood samples (50 μl) were taken using EDTA coated glass capillaries at (1) t = 0, 0.5, 1, 1.5, 2 and 2.5 h, (2) t = 2.5, 3, 4, 6, 8 and 22 h, or (3) t = 22, 24, 26, 28, 30 and 32 h and immediately added to Eppendorf tubes (Eppendorf, Hamburg, Germany) and centrifuged at 3500g, 20 min, 4°C. Plasma was transferred into Eppendorf tubes on dry ice and stored at −20°C for analysis.
mGIPAnt‐1 levels were measured by an in‐house radioimmunoassay using a polyclonal antibody recognizing a mid‐regional part of GIP (code no. 95234) (Gasbjerg et al., [2017]). mGIPAnt‐1 was used as standard and the assay buffer was a 80‐mM phosphate buffer pH 7.5, containing (in final concentrations) 0.1% HSA, 10‐mM EDTA, 500‐KIU ml^−1 aprotinin and 0.01‐mM valine pyrrolidide. Samples were carefully diluted to ensure that samples would fall within the measurable range of the assay. […]
Results are presented as mean ± SE. Data were analysed with one‐way and two‐way analysis of variance (ANOVA) with Tukey's or Sidak multiple comparisons test and Student's unpaired t tests where appropriate. […] For the in vitro data IC50 values were determined by nonlinear regression using GraphPad Prism 9 (San Diego, California, USA). […]

[2] = tested on: Female ovariectomised C57Bl6/J mice; experiment: Terminal plasma adiponectin, triglyceride and glycerol; assay type: in vivo, mouse; settings: 8 weeks of 300 nmol·kg−1 s.c. daily
Description: A week after ovariectomy, at 10 weeks of age, animals were randomized into groups and placed on a 60 kcal% HFD (HFD, D12492, Research Diets, New Brunswick, NJ, USA) or a control diet (10 kcal% fat, D12450J, Research Diets) for 8 weeks. Group sizes were as follows: Vehicle/control diet, n = 12; mGIPAnt‐1/control diet, n = 12; Vehicle/HFD, n = 11; mGIPAnt‐1/HFD, n = 12. The reduction of animal numbers in group Vehicle/HFD was due to unexpected loss of an animal. Animals received a daily s.c. injection at 4:30 PM with mGIPAnt‐1 (300‐nmol·kg^−1) or vehicle. Body weight and body composition were assessed weekly (LF90II body composition analyzer, Bruker, Billerica, MA, USA). On the final experimental day, animals were anaesthetized with an intraperitoneal injection of 90 mg·kg^−1 ketamine and 10‐mg·kg^−1 xylazine. The microchip was quickly removed from HM‐2 cage animals and a final body composition measurement was performed on all animals. A terminal retro‐orbital blood sample was taken, mice were killed through cervical dislocation and tissues were quickly dissected and weighed.
Insulin levels in intraperitoneal glucose tolerance test and oral glucose tolerance test plasma samples were measured using a mouse insulin ELISA (catalogue no. 10‐1247‐10; Mercodia AB, Uppsala, Sweden). Adiponectin levels in terminal plasma samples were measured using a mouse adiponectin ELISA kit (catalogue no. 80569, Crystal Chem, Elk Grove Village, IL, USA). Adiponectin samples were carefully diluted in kit‐specific assay buffer. The manufacturer's instructions were followed closely.
Triglyceride and free glycerol levels in terminal plasma samples were determined using a triglyceride and free glycerol kit (TR0100‐1KT, Sigma‐Aldrich, St. Louis, MO, USA).

mouse GLP‐2 receptor = biological target: T1, mouse GLP‐2 receptor (Mus musculus, UniProt Q5IXF8); experiment: cAMP accumulation, agonism in transfected COS‐7 cells; assay type: cell-based; settings: increasing concentrations, COS‐7, n = 5
T1 construct: host or cells: COS-7
T1 sequence (Q5IXF8 1-512): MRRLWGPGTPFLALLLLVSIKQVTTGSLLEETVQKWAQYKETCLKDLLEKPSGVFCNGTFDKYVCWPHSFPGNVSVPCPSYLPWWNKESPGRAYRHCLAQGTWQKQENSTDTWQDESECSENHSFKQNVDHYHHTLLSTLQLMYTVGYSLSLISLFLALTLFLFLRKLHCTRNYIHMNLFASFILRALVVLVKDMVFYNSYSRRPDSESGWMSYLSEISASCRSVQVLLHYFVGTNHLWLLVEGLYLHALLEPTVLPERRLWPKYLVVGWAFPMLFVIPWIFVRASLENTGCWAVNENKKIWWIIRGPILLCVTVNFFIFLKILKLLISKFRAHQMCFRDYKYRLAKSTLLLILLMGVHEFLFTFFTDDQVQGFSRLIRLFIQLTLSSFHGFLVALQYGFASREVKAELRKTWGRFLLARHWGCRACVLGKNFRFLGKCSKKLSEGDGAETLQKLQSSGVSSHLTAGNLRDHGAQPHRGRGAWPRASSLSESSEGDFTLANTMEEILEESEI
Procedure: COS‐7 cells were cultured at 10% CO2 and 37°C in Dulbecco's Modified Eagle Medium 1885 supplemented with 10% foetal bovine serum, 2‐mM glutamine, 180‐units ml^−1 penicillin and […] streptomycin. Transient transfection of the cells with either human or mouse GIP receptor was performed using the calcium phosphate precipitation method as previously described (van der Velden et al., [2021]). A second set of cells was transiently transfected with either mouse GLP‐1 or GLP‐2 receptor. Following the day after transfection, the cells were seeded in white 96‐well plates with a density of 35.000 cells per well. The next day the assay was initiated by washing the cells with HEPES buffered saline (HBS) followed by an incubation step with HBS and 1‐mM 3‐isobutyl‐1‐methylxanthine for 30 min at 37°C. For agonist studies, the ligands were then added and incubated for an additional 30 min at 37°C. To test for antagonistic properties, the cells were first preincubated for 10 min with the antagonist with subsequent addition of the agonist and incubated for an additional 20 min. The HitHunter® cAMP assay (Eurofins DiscoverX, Fremont, USA) was carried out according to the manufacturer's protocol. Luminescence was measured by PerkinElmer™ Envision 2014 Multilabel Reader.
FIGURE 2 In vitro signalling profile of mGIPAnt‐1 on the mouse GLP‐1 and GLP‐2 receptor (R). […]

In the case of `CC[C@H](C)[C@H](NC(=O)[C@H](CO)NC(=O)[C@H](Cc1ccc(O)cc1)NC(=O)[C@H](CC(=O)O)NC(=O)[C@H](CO)NC(=O)[C@@H](NC(=O)[C@H](Cc1ccccc1)NC(=O)[C@@H](NC(=O)CNC(=O)[C@@H](N)CCC(=O)O)[C@@H](C)O)[C@@H](C)CC)C(=O)N[C@@H](C)C(=O)N[C@@H](CCSC)C(=O)N[C@@H](CC(=O)O)C(=O)N[C@@H](CCCCN)C(=O)N[C@H](C(=O)N[C@@H](CCCCNC(=O)CCCCCCCCCCCCCCC(=O)O)C(=O)N[C@@H](CCC(N)=O)C(=O)N[C@@H](CCC(N)=O)C(=O)N[C@@H](CC(=O)O)C(=O)N[C@@H](Cc1ccccc1)C(=O)N[C@H](C(=O)N[C@@H](CC(N)=O)C(=O)N[C@@H](Cc1c[nH]c2ccccc12)C(=O)N[C@@H](CC(C)C)C(=O)N[C@@H](CC(C)C)C(=O)N[C@@H](C)C(=O)N[C@@H](CCC(N)=O)C(=O)N[C@@H](CCCCN)C(=O)NCC(=O)N[C@@H](CCCCN)C(=O)N[C@@H](CCCCN)C(=O)N[C@@H](CC(N)=O)C(=O)N[C@@H](CC(=O)O)C(=O)N[C@@H](Cc1c[nH]c2ccccc12)C(=O)N[C@@H](CCCCN)C(=O)N[C@@H](Cc1c[nH]cn1)C(=O)N[C@@H](CC(N)=O)C(=O)O)C(C)C)[C@@H](C)CC` [mGIPAnt‐1] (H-EGTFISDYSIAMDKIK(C16 diacid)QQDFVNWLLAQKGKKNDWKHN-OH), the half-life ([1]; calculated between t = 1.5 h and 32 h, n = 6) was about 432 min, the Tmax ([1]; n = 6, read-out: time of peak plasma concentration) was 1.5 h and the terminal plasma glycerol [2] was “did not significantly affect”. The terminal plasma triglyceride [2] was “did not significantly affect”, the terminal plasma adiponectin ([2]; ELISA) was “did not significantly affect” and the “terminal plasma glycerol, HFD versus Vehicle/HFD” value ([2]; did not reach significance) was “trend towards increased glycerol levels”. For the same compound, the “activation of mouse GLP‐2 receptor (cAMP)” value (mouse GLP‐2 receptor) was “does not induce activation”.
